According to ChEMBL document CHEMBL1201862, “PubChem BioAssay data set” (2004):
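Test compounds were applied to cells in 96-well plates for 48 hours at 5 doses. Here, GI50 denotes the concentration required for 50% inhibition of growth.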 The source made the active and inactive calls. Cut-off read from the data, not from the text of the source: active = GI50 up to about 1.1 µM and inactive = higher.

Key:
Assay in all cases: growth of human tumour cells (NCI), 48 h
OVCAR-3 = system: OVCAR-3
SR = system: SR
M14 = system: M14
UACC-62 = system: UACC-62
786-0 = system: 786-0
LOX IMVI = system: LOX IMVI
SK-OV-3 = system: SK-OV-3
NCI-H522 = system: NCI-H522
SK-MEL-5 = system: SK-MEL-5
KM12 = system: KM12
CAKI-1 = system: CAKI-1
CCRF-CEM = system: CCRF-CEM
OVCAR-5 = system: OVCAR-5
OVCAR-4 = system: OVCAR-4
NCI/ADR-RES = system: NCI/ADR-RES
OVCAR-8 = system: OVCAR-8
HCC 2998 = system: HCC 2998
HOP-62 = system: HOP-62

Row | SMILES | GI50 (OVCAR-3) | GI50 (SR) | GI50 (M14) | GI50 (UACC-62) | GI50 (786-0) | GI50 (LOX IMVI) | GI50 (SK-OV-3) | GI50 (NCI-H522) | GI50 (SK-MEL-5) | GI50 (KM12) | GI50 (CAKI-1) | GI50 (CCRF-CEM) | GI50 (OVCAR-5) | GI50 (OVCAR-4) | GI50 (NCI/ADR-RES) | GI50 (OVCAR-8) | GI50 (HCC 2998) | GI50 (HOP-62)
1 | NC(=S)NNCC(=O)CC(O)(C(F)(F)F)C(F)(F)Cl (stereo not given) | > 100 µM (inactive) | > 100 µM (inactive) | > 100 µM (inactive) | > 100 µM (inactive) | > 100 µM (inactive) | > 100 µM (inactive) | > 100 µM (inactive) | > 100 µM (inactive) | > 100 µM (inactive) | > 100 µM (inactive) | > 100 µM (inactive) | > 100 µM (inactive) | > 100 µM (inactive) | > 100 µM (inactive) | > 100 µM (inactive) | > 100 µM (inactive) |  | 
2 | NC(=S)N/N=C(\Cc1nc2ccc(Cl)cc2nc1O)C(=O)Nc1ccc(Cl)cc1 | > 100 µM (inactive) |  | > 100 µM (inactive) | > 100 µM (inactive) | > 100 µM (inactive) | > 100 µM (inactive) | > 100 µM (inactive) | > 100 µM (inactive) | > 100 µM (inactive) | > 100 µM (inactive) | > 100 µM (inactive) | > 100 µM (inactive) | > 100 µM (inactive) | > 100 µM (inactive) | > 100 µM (inactive) | > 100 µM (inactive) | > 100 µM (inactive) | > 100 µM (inactive)
3 | C[C@H](CCC1=NCCN1)[C@H]1CC[C@H]2[C@@H]3CC[C@@H]4C[C@H](O)CC[C@]4(C)[C@H]3C[C@H](O)[C@]12C | 12.1 µM (inactive) |  | 17.4 µM (inactive) | 13.5 µM (inactive) | 16.3 µM (inactive) | 11.2 µM (inactive) | 18 µM (inactive) | 5.75 µM (inactive) | 11.8 µM (inactive) | 11.8 µM (inactive) | 20.4 µM (inactive) | 10.7 µM (inactive) | 14.5 µM (inactive) | 15.9 µM (inactive) | > 100 µM (inactive) | 15.5 µM (inactive) | 13.5 µM (inactive) | 15.5 µM (inactive)
4 | Cc1ccc(S(=O)(=O)/N=C(\NN)Nc2ccc(Cl)cc2)cc1 | > 100 µM (inactive) | 83.9 µM (inactive) | > 100 µM (inactive) | > 100 µM (inactive) | > 100 µM (inactive) | > 100 µM (inactive) | > 100 µM (inactive) |  | > 100 µM (inactive) | > 100 µM (inactive) | > 100 µM (inactive) | > 100 µM (inactive) | > 100 µM (inactive) | > 100 µM (inactive) | > 100 µM (inactive) | > 100 µM (inactive) |  | > 100 µM (inactive)
5 | CC(=O)Nc1[nH]c(C#N)nc1C#N | > 100 µM (inactive) |  | > 100 µM (inactive) | > 100 µM (inactive) | > 100 µM (inactive) | > 100 µM (inactive) | > 100 µM (inactive) | > 100 µM (inactive) | > 100 µM (inactive) | > 100 µM (inactive) | > 100 µM (inactive) | > 100 µM (inactive) | > 100 µM (inactive) | > 100 µM (inactive) | > 100 µM (inactive) | > 100 µM (inactive) | > 100 µM (inactive) | > 100 µM (inactive)
6 | CCOP(=O)(OCC)C(C)(CC)NC (stereo not given) | > 100 µM (inactive) |  | > 100 µM (inactive) | > 100 µM (inactive) | > 100 µM (inactive) | > 100 µM (inactive) | > 100 µM (inactive) | > 100 µM (inactive) | > 100 µM (inactive) | > 100 µM (inactive) | > 100 µM (inactive) | 0.935 µM (active) | > 100 µM (inactive) | > 100 µM (inactive) | > 100 µM (inactive) | > 100 µM (inactive) | > 100 µM (inactive) | > 100 µM (inactive)
